# “Also recorded” adds a separate entry of the source. Where two headings read alike, the source gives them in different places.
# Tests used:
# [1] = test system: S. aureus; experiment: CF sputum bacterial killing, bacteria-coated grids assay; type: cell-based, S. aureus (SH1000); details: for bacterial killing in human CF sputum: grid assay, compared to saline
# Method: Adults diagnosed with CF were recruited. Patients were asked to swallow saliva and to expectorate all secretions during routine clinic visits. Sputum plugs were visually identified and separated from saliva, weighed and stored at −70° C. in small, tightly sealed containers to minimize water loss under needed. […] To guarantee adequate mixing of sputum with the different solutions, the mixture was homogenized (Sonic Dismembrator Model 100, Fisher Scientific) for 30 seconds. All experiments were conducted in a humidified chamber with constant 5% CO2.
# To interrogate individual bacteria killing in CF sputum or in pigs, bacteria-coated grids assay were used (Pezzulo A A, Tang X X, Hoegger M J, Alaiwa M H, Ramachandran S, Moninger T O, et al. Reduced airway surface pH impairs bacterial killing in the porcine cystic fibrosis lung. Nature. 2012; 487(7405):109-13. Epub 2012/07/06. doi: 10.1038/nature11130. PubMed PMID: 22763554; PubMed Central PMCID: PMC3390761; Abou Alaiwa M H, Reznikov L R, Gansemer N D, Sheets K A, Horswill A R, Stoltz D A, et al. pH modulates the activity and synergism of the airway surface liquid antimicrobials beta-defensin-3 and LL-37. Proceedings of the National Academy of Sciences of the United States of America. 2014; 111(52):18703-8. doi: 10.1073/pnas.1422091112. PubMed PMID: 25512526; PubMed Central PMCID: PMC4284593). Gold grids (200 mesh, Ted Pella) were functionalized using a series of intervention: 100 mM 11-mercaptoundecanoic acid (MUA in 100% alcohol, Aldrich) for 60 min at room temperature, 1:1 mixture of 100 mM N-ethyl-N-(3-[…]) carbodiimide) (EDC) and 100 mM N-hydroxysuccinimide (NETS) for 30 min at room temperature, 0.1 mg/ml Neutravidin (Sigma) at 37° C. for 1 hour.
# Two different strains of S. aureus were used (SH1000 a human strain for CF sputum killing studies and SA43 a porcine strain for pig studies). Bacteria were grown to mid-log phase, incubated with 0.2 mg/ml N-hydroxysulphosuccinimide (sulpho-NHS)-biotin for 60 min at room temperature, quenched with 100 mM glycine to bind excess free biotin and allowed to attach to Neutravidin-coated grids for 15 minutes prior to the experiment.
# After bacteria-coated grids were exposed to pig trachea for 5 minutes or CF sputum for 15 minutes, they were immediately rinsed in phosphate buffered saline and stained with SYTO9/propidium iodide (Live/Dead BacLight Bacterial viability assay, Invitrogen), mounted on slides and imaged on a laser-scanning confocal microscope (Olympus FV1000). Live (green) and dead (red) bacteria were automatically counted using Image-based Tool for Counting Nuclei (ITCN 1.6, UCSB Center for Bio-Image Informatics, UC San Barbara) an ImageJ (U.S. National Institutes of Health, Bethesda, Maryland, USA) plugin.
# [2] = test system: tracheal ASL of non-CF piglets; experiment: Tracheal ASL pH of non-CF (wild type) newborn piglets after aerosolized buffer; type: in vivo, pig
# Description: (§1) To measure pH in pigs in vivo, non-invasive dual lifetime referencing was used to interrogate a 3×3 mm planar optode (pH sensitive foil, PreSens GmbH) applied directly to the tracheal surface of anesthetized pigs (Pezzulo A A, Tang X X, Hoegger M J, Alaiwa M H, Ramachandran S, Moninger T O, et al. Reduced airway surface pH impairs bacterial killing in the porcine cystic fibrosis lung. Nature. 2012; 487(7405):109-13. Epub 2012/07/06. doi: 10.1038/nature11130. PubMed PMID: 22763554; PubMed Central PMCID: PMC3390761). pH-dependent polarized light phase shift was measured using a single channel pH meter (pH-1 mini; PreSens GmbH). The tip of the fiber optic pH meter was kept at the same constant distance from the tracheal surface in all samples and confirmed by recording the amplitude. Calibration before each set of measurements was done by measuring phase shift from flat filters soaked in standard pH buffers. All measurements were obtained in a humidified chamber at 37° C. and constant 5% CO2 to mimic physiologic conditions.
# (§2) Pigs were initially sedated with Ketamine (20 mg/kg, IM injection) and Xylazine (2 mg/kg, IM injection) and anesthetized using Propofol (2 mg/kg, IV injection). The trachea was surgically exposed and accessed anteriorly. A small anterior window through the tracheal rings accessed a tracheal window to interventions and pH measurements. All studies obtained in a 100% humidified chamber at 37° C. and constant 5% CO2 to mimic physiologic conditions.
# [3] = test system: S. aureus Xen-29
# [4] = test system: nasal pH of healthy volunteers; experiment: Nasal pH of healthy human volunteers after instillation; type: in vivo; details: for nasal pH: 250 μl of 0.3 M solution
# Method: (§3) Prior to each study the pH probe was calibrated in buffer solutions of pH 6, 7 and 8 (VWR, West Chester, PA). Voltage was recorded with an Oakton pH6+ meter (Cole-Palmer, Vernon Hills, IL) and corrected to temperature. The probe was positioned at 6 cm from the most caudal aspect of the columella. The probe remained in position until the readings were stable. All measurements were taken from the right nostril and by the same operator. Subjects on intranasal medications (steroids or anticholinergics) or with history of nasal or sinus surgery were excluded from the study.
# [5] = test system: human CF airway cultures; experiment: ASL viscosity in human CF airway cultures; type: cell-based
# Description: (A) Effect of saline or THAM on ASL viscosity in humanCF airway cultures. […] Data are mean±SEM. n=6 individual donors/group. * p<0.05, t-test.
# Two approaches are used to investigate the viscoelastic properties of airway mucus. […] Second, in airway epithelial cell cultures from non-CF and CF newborn pig and human donors, mucus viscosity (±THAM) is estimated by measuring the diffusion of fluorescent FITC-dextran with a FRAP assay and ASL/mucus pH using the pH indicator SNARF-1 (FIG. 11D&13A). Viscosity is directly correlated to diffusion. If the viscosity is high, FITC-dextran will slowly diffuse to the photo-bleached ASL areas.
# [6] = test system: tracheal ASL of CF piglets; details: 15 minutes after aerosolized tromethamine
# Description: as §1
# as §2, with “All studies obtained in a 100% humidified chamber at 37° C. and constant 5% CO2 to mimic physiologic conditions.” left out
# [7] = test system: human non-CF/CF airway epithelial cultures; details: THAM (1 μl), pH at 0 & 15 m
# Method: FIGS. 15A-15B. […] (A) THAM (1 μl) was applied to human n non-CF/CF airway epithelial cultures. pH was measured at 0 & 15 m with SNARF. Data are mean±SEM. n=6 donors/group. * p<0.05, t-test.
# [8] = test system: nasal epithelia of CF subjects
# Description: Methods Mol Biol. 2011; 741:69-86. doi: 10.1007/978-1-61779-117-8_6. PubMed PMID: 21594779; PubMed Central PMCID: PMCPMC3760477).
# [9] = test system: mice
# Description: FIGS. 14A-14G. […] (A) BAL pH measured 3.5 hr after THAM inhalation. Mice were aerosolized with THAM (10× dose used in our prior human studies) or water (ctrl) in a whole-body exposure chamber for 3.5 hrs/d (5 d total). 3 d later mice were euthanized/studied. (B) BAL-total cell cts. (C) BAL-% alveolar macrophages. (D) BAL-LDH activity. […] (F) Airway resistance (FlexiVent). […] (G) Lung histology (HE). Data are mean±SEM. n=4-10/group. * p<0.05, t-test. Some SEM bars are hidden in mean bars.
# [10] = intravenous, cited from earlier work
# [11] = test system: S. aureus; details: 15 minutes after aerosolized tromethamine, compared to NaCl
# Method: Pigs were initially sedated with Ketamine (20 mg/kg, IM injection) and Xylazine (2 mg/kg, IM injection) and anesthetized using Propofol (2 mg/kg, IV injection). The trachea was surgically exposed and accessed anteriorly. A small anterior window through the tracheal rings accessed a tracheal window to interventions and pH measurements. All studies obtained in a 100% humidified chamber at 37° C. and constant 5% CO2 to mimic physiologic conditions. […]
# [12] = test system: non-CF newborn pig; details: PARI LC-PLUS nebulizer, distal mainstem bronchi
# Description: THAM was aerosolized into a sedated, non-CF newborn pig with a PARI LC-PLUS® nebulizer, using a cone mask over the snout. After sedation, a pH probe was passed through the vocal cords and into the distal mainstem bronchi. ASL pH was continuously measured.
# [13] = Buffering capacity by acid titration; type: physicochemical; details: 0.3 M tromethamine titrated with 0.1 M HCl
# Method: 100 mM HCl was delivered into 5 mL of buffer at a rate of 0.2 ml/min. Titration was carried out to endpoint of pH 3. The volume of HCl delivered was recorded and used to calculate the acid equivalents needed to […] pH by 1 unit or buffering capacity.
# [14] = test system: nasal pH of subjects with cystic fibrosis (CF)
# Method: as §3
# [15] = test system: human subjects; details: 24 h after aerosolized nasal delivery
# Method: as §3
# [16] = test system: coagulase-negative; details: aerosolized, non-CF subjects; cited from earlier work
smiles,measurement,setting,value
O=C([O-])O.[Na+] [NaHCO3],bacterial killing in human CF sputum,[1],improved bacterial killing to non-CF levels
same,CF sputum ability to kill S. aureus,"[1]; sputum mixed 1:1 v/v with 200 mM NaHCO3, compared to equimolar NaCl, grids recovered after 15 minutes",increased the CF sputum ability to kill S. aureus
same,tracheal ASL pH,[2]; 250 μl of 200 mM NaHCO3 aerosolized onto exposed trachea,alkalinized ASL pH
same,time for ASL pH to return to baseline,"[2]; NaHCO3/HCO3− aerosol, non-CF piglet trachea",≤ 30 minutes
same,effect of increasing HCO3− concentration on hBD-3 antimicrobial activity,"[3]; constant pH 7.5, absence of Ca2+ & Mg2+, 1 μg/ml hBD-3, NaHCO3 10-80 mM",slightly inhibited
same,effect of increasing HCO3− concentration on LL-37 antimicrobial activity,"[3]; constant pH 7.5, absence of Ca2+ & Mg2+, 100 μm/ml LL-37, NaHCO3 10-80 mM",slightly inhibited
same,effect of increasing HCO3− concentration on hBD-3 antimicrobial activity,"[3]; constant pH 7.5, presence of 1 mM Ca2+ & 1 mM Mg2+, 5 μg/ml hBD-3",inhibited
same,effect of increasing HCO3− concentration on LL-37 antimicrobial activity,"[3]; constant pH 7.5, presence of 1 mM Ca2+ & 1 mM Mg2+, 100 μm/ml LL-37",inhibited
same,time for nasal pH to return to baseline,[4]; 250 μl of 2% (238 mM) NaHCO3,≤ 60 minutes
same,nasal ASL pH,[4]; 250 μl of 2% (238 mM) NaHCO3 aerosolized into the nose,increased ASL pH
same,effect of a higher concentration on the duration of the rise in nasal pH,[4]; NaHCO3 increased to 5% or 7%,no additional effect
same,ASL viscosity,[5],reduced viscosity
"NC(CO)(CO)CO [tromethamine, tris(hydroxymethyl)aminomethane]",tracheal ASL pH,[6],increased pH
same,alkalinization of CF vs non-CF epithelia,[7],Alkalinizes CF Epithelia Greater than Non-CF
same,bacterial killing in human CF sputum,[1],improved bacterial killing to non-CF levels; also recorded: acutely restored ASL bacterial killing
same,ability of CF sputum to kill S. aureus,"[1]; sputum mixed 1:1 (w/v) with 300 mM tromethamine ± 1197 mM (7%) NaCl, compared to hypertonic saline alone",increased the ability of CF sputum to kill S. aureus
same,tracheal ASL pH immediately after administration,[2]; 250 μl 0.3M tromethamine,raised pH
same,tracheal ASL pH at 60 minutes,"[2]; 250 μl 0.3M tromethamine, 60 minutes",still higher than baseline
same,nasal voltage,[8]; baseline vs 30 min after 250 μl 0.3 M tromethamine,no effect
same,epithelial barrier integrity,[8]; inferred from nasal voltage,no disruption
same,airway (BAL) pH,[9]; BAL pH 3.5 hr after THAM inhalation,raised the airway pH
same,"BAL other proinflammatory cytokines, THAM vs water control","[9]; mouse, in vivo",no difference
same,"clinical signs, gross pathology, BAL cell counts/cytokines/LDH, bronchoconstriction, histopathology","[9]; mouse, in vivo",no adverse treatment related findings
same,tolerability of THAM exposure,"[9]; mouse, in vivo",well tolerated
same,effect on hBD-3 antimicrobial activity,"[3]; 10 mM tromethamine (pH 8.65) vs 10 mM xylitol (pH 7.02), 1 μg/ml hBD-3, ionic strength 125 mM",enhanced
same,effect on LL-37 antimicrobial activity,"[3]; 10 mM tromethamine (pH 8.65) vs 10 mM xylitol (pH 7.02), 10 μg/ml LL-37, ionic strength 125 mM",enhanced
same,persistence of serum alkalinizing effect,[10]; serum,16 to 48 h
same,half-life when given intravenously,[10],long half-life
same,ASL bacterial killing,[11]; listed as THAM,acutely restored ASL bacterial killing
same,ASL bacterial killing,[11]; listed as Tromethamine,enhanced bacterial killing
same,airway alkalinization over time,[12],Prolonged Airway Alkalinization
same,additional buffering range at lower pH values,[13],3-6 pH
same,nasal pH,[4],alkalinized the nasal pH
same,pH change at 30 min as share of the maximal pH response,"[4]; 30 min after THAM aerosolization, non-CF noses",30%
same,nasal pH,[14]; 250 μl tromethamine,increased nasal pH
same,duration of increased nasal pH,"[14]; 250 μl tromethamine, 30 minutes was the total duration of the experiment",30 minutes
same,pH change at 30 min as share of the maximal pH response,[14]; 30 min after THAM aerosolization into the nose of people with CF,~ 80%
same,adverse effects reported,[15],no adverse effects
same,ASL viscosity,[5],reduced viscosity
OC[C@@H](O)[C@H](O)[C@@H](O)CO [xylitol],nasal pH,[4],no effect
same,nasal coagulase-negative S. aureus colonization,[16],decreased

# — patent US12702649B2, “Method of treating cystic fibrosis airway disease” (priority 2016, dated 2026)
